Measurements reported in publication PMC10214526, “Semisynthetic LC3 Probes for Autophagy Pathways Reveal a Noncanonical LC3 Interacting Region Motif Crucial for the Enzymatic Activity of Human ATG3” (ACS Central Science, 2023).

Legend:
[1] = Circular dichroism spectroscopy of LIR^ATG3 peptides; assay type: physicochemical; conditions: 700 μM peptide, 20 mM potassium phosphate pH 7.2, 20 °C, 180-300 nm, 5x averaged
Excerpt: Farnung et al. Supplementary Information […]
H Capping with O H Resin cleavage O H Cyclization O […]
acid anhydride deprotection
Figure S11. Preparation of cyclized LIRATG3 peptide 6. a, Synthetic scheme describing the preparation of 6.
A cysteine residue is introduced at the C-terminus of the LIR motif. Following standard Fmoc-SPPS the LIR peptide is capped at its N-terminus with α-chloroacetic acid anhydride. Following resin cleavage, the peptide is cyclized by cysteine alkylation. b, Analytical RP-HPLC chromatograms showing the cyclization of the LIR […]
peptide to provide 6. […] Middle chromatogram
Figure S12. CD spectra of linear and cyclic LIR ATG3 peptides 5 and 6. CD spectra of LIRATG3 peptides 5 and 6 were recorded in 20 mM KPhos buffer (pH 7.2) at a concentration of 700 μM. Cyclized LIRATG3 peptide 6 […]
nm and an increase in band intensity at 215 nm.
Plasmid Supplier Identiﬁer Dilution
Anti-ATG5 Cell-Signalling #D5F5U 1:1,000
Anti-β-Actin Thermo-Fisher #BA3R 1:2,000
Table S2 Antibodies used in this study.
2.9. Circular dichroism spectroscopy
CD spectra were recorded on a JASCO J-1500 CD spectrometer in a 0.1 cm cuvette. Samples were measured in potassium phosphate (20 mM, pH 7.2) at 20 °C. Data were recorded between 180-300 nm with a measuring speed of 20 nm/min. Measurements were repeated (5x) and averaged.
Background spectrum was recorded and subtracted from measured spectra. […]

[2] = biological target: T1, ATG3 C1–GABARAP (probe 2) complex formation (Homo sapiens, UniProt O95166); assay: Competition assay: LIR^ATG3 peptides vs cross-linking of GABARAP methyl fumarate probe 2 with ATG3 C1; assay type: biochemical; conditions: probe 2 (15 μM) with ATG3 C1 in the presence of increasing amounts of peptide
T1 construct: SUMO2 (N, cleaved yes); Mxe GyrA intein-His6 (C, cleaved yes); made in house; host or cells: E. coli Rosetta-CodonPlus (DE3)-RIL
T1 sequence (O95166 1-115 limits assumed, one chain of several): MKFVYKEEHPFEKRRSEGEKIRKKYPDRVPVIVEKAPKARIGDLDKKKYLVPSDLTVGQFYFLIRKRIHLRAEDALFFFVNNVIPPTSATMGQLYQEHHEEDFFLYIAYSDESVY
Method: To exclude an effect of LIR deletion on protein activity we performed a competition experiment with chemically prepared LIR (L94-H112) peptide 5. Probe 2 (15 μM) was incubated with ATG3 C1 in the presence of increasing amounts of 5. […] We also postulated that cyclization of the LIR peptide would recapitulate its β-sheet conformation and lead to tighter binding than the linear peptide due to preorganization.[37] […] Cyclic peptide 6 was prepared by solid-phase peptide synthesis followed by cyclization using selective cysteine alkylation (Figure S11).[39],[40] […] Additionally, we confirmed the interaction of LIR^ATG3 peptides with GABARAP and LC3A by fluorescence polarization (Figure 2e–g). LIR^ATG3-derived peptides bind to both LC3A and GABARAP. As indicated by the competition experiments, cyclic peptides bound markedly tighter to GABARAP and LC3A than the linear peptides. […]
Figure 2 Characterization of LIR^ATG3. a. […] Quantification of competition assays shown in b and c. The amount of GABARAP–ATG3 C1 complex was quantified by gel-densitometry and normalized to the reaction without peptide for each gel. […] Fluorescence polarization binding-data of fluorescein-modified LIR^ATG3 peptide binding to GABARAP. […] Fluorescence polarization data of fluorescein-modified LIR^ATG3 peptide binding to LC3A. […]
Farnung et al. Supplementary Information and monitored using LC-MS analysis. […]

Substance: Ac-LEAIIEEDDGDGGWVDTYHAGGGK-OH [compound 5]
- Secondary structure by CD [1]: not structured in solution
- Block of ATG3 modification [2]: blocked ATG3 modification in a concentration-dependent manner
